Columns and labels:
[1] = Hygroscopicity: moisture sorption isotherms on a dynamic moisture balance; format: physicochemical
Procedure: The moisture sorption isotherms of Form V was determined at 25° C. using a dynamic moisture balance (MB-300G) (VTI Corp., Hialeah, Fla.) calibrated for weight with 10 to 100 mg standard weights and for moisture with polyvinylpyrrolidone. The value for the weight equilibrium criterion for each relative humidity is calculated based on the weight of the sample and the drift in the balance (0.001 mg). A value of 8 min. was used for the time criteria. The moisture sorption profile of the dihydrate (Form V) (Adsorption 1/Desorption 1) after drying in vacuo for 2 h is shown in FIG. 5. Form V dehydrates on drying to a different crystal form as shown by vacuum X-ray powder diffraction in FIG. 6, losing approximately 8% by weight. For purposes of this specification, this dehydrated dihydrate is identified as […]. This form appears to be the same as that obtained by heating the sample at 125° C., but different from that obtained on drying at 60° C. in air for 24 h. The latter form is identified as Form III. The Form II (dehydrated dihydrate) is hygroscopic converting to a hemihydrate between ca. 10-40% RH and a tetrahydrate at 90% RH (FIG. 5 and FIG. 7). However, the XRPD pattern for the hemihydrate is the same as that of the dehydrated dihydrate (Form II). For purposes of this specification this hemihydrate and tetrahydrate are identified as Form II and Form IV, respectively.
Form I is non-hygroscopic with a maximum weight change of ca. 1% at 90% RH. On desorption, the tetrahydrate (Form IV) remains unchanged between 90-60% RH but converts to dihydrate (Form V) at 45-15% RH (FIG. 5 and FIG. 8).
Since the X-ray diffraction patterns of the dehydrated dihydrate and the hemihydrate are the same, we conclude that the hemihydrate is isostructural with the dehydrated dihydrate form obtained on drying in vacuo. […]

[2] = Thermal stability: heating the sample for 24 h at 60° C. in air; format: physicochemical
Procedure: The thermal stability of the Form V was evaluated by heating the sample for 24 h at 60° C. in air. The dihydrate (Form V) readily dehydrates within 10 min of heating losing approximately 8.5% by weight (corresponding to ca. 2 moles of water per mole base).

| Hygroscopicity (in words) ([1]; 25° C., dynamic moisture balance) | maximum weight change ([1]; at 90% RH, 25° C.) | Compound | weight lost on drying (dehydration to a different crystal form) ([1]; drying in vacuo for 2 h) | time of heating until dehydration [2] | weight lost on heating (dehydration) [2] |
| --- | --- | --- | --- | --- | --- |
| non-hygroscopic | ca. 1% | O=C(NC1CC1)c1cn(-c2cccc(C#Cc3ccc[n+]([O-])c3)c2)c2ncccc2c1=O [Form I, N-Cyclopropyl-1-{3-[(1-oxidopryidin-3-yl)ethynyl]phenyl}-4-oxo-1,4-dihydro-1,8-naphthyridine-3-carboxyamide] |  |  |  |
|  |  | Compound IX Dihydrate [Dihydrate (Form V)] | approximately 8 % by weight | ≤ 10 min | approximately 8.5 % by weight |

— patent US8552193B2, “Alternative forms of the phosphodiesterase-4 inhibitor N-cyclopropyl-1-{3-[(1-oxidopryidin-3-yl)ethynyl]phenyl}-4-oxo-1,4-dihydro-1,8-naphthyridine-3-carboxyamide” (Merck Sharp & Dohme Corp., priority 2004, dated 2013)
